In ChEMBL document CHEMBL1157915, “Bivalent beta-carbolines as potential multitarget anti-Alzheimer agents” (J Med Chem, 2010):
pIC50, pKi: −log10 of the molar value. Several values for one entry are separate records, joined by “and”; a condition that tells them apart may be missing. Identical values can stand only once.

Experiments:
[1] = target: Cholinesterase (Equus caballus, UniProt P81908)
Description: Inhibition of equine serum BChE by modified Ellman's method

[2] = Cytotoxicity against mouse L12-G10 cells at 50 uM by MTT assay; assay type: cell-based; settings: l12-g10, 50 µM
[3] = target: Acetylcholinesterase (Electrophorus electricus, UniProt O42275)
Description: Inhibition of electric eel AChE by modified Ellman's method

[4] = target: Glutamate NMDA receptor; GRIN1/GRIN2B (Homo sapiens, UniProt Q05586+Q13224); assay: Displacement of [3H]ifenprodil from human NR1-1a/NR2B receptor expressed in mouse L13-E6 cells; assay type: cell-based
[5] = Cytotoxicity against mouse L12-G10 cells by MTT assay; assay type: cell-based
[6] = target: Glutamate NMDA receptor; GRIN1/GRIN2A (Homo sapiens) (UniProt Q05586+Q12879); settings: L12-G10, 100 uM
Description: Inhibition of dexamethasone-induced human NR1-1a/NR2A receptor-mediated excitotoxicity in (S)-glutamate/glycine-stimulated mouse L12-G10 cells assessed as LDH release at 100 uM after 30 mins

Chain of Cholinesterase (P81908 whole entry): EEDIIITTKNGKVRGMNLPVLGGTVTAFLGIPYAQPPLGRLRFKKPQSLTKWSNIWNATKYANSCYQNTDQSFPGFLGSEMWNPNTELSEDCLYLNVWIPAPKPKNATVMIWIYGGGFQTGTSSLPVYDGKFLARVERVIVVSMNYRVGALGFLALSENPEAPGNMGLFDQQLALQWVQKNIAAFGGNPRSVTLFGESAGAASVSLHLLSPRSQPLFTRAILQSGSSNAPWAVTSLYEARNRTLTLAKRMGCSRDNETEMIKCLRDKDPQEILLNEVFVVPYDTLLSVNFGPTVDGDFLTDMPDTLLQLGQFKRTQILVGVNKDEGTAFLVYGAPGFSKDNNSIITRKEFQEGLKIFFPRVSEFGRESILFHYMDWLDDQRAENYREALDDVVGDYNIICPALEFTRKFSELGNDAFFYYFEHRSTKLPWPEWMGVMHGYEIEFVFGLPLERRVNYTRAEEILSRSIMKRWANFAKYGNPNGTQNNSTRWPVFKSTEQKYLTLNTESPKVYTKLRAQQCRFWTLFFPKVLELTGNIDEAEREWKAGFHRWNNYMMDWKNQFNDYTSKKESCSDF
Chain of Acetylcholinesterase (O42275 whole entry): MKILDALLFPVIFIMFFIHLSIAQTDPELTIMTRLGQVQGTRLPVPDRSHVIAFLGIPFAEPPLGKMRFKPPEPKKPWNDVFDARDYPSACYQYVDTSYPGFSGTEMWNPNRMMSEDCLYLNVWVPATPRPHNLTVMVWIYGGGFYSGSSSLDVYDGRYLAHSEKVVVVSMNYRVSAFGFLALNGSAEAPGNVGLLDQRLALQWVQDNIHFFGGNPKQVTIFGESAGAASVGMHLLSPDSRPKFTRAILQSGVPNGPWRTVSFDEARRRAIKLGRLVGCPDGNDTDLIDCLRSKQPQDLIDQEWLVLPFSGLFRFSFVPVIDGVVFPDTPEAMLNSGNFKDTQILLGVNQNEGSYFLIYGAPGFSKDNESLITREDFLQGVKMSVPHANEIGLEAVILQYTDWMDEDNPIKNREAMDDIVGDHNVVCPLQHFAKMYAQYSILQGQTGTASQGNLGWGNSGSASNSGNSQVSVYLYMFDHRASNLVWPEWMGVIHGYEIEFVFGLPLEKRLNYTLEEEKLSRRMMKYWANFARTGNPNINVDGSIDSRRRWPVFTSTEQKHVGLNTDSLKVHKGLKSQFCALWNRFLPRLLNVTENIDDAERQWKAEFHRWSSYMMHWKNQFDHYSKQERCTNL
Chain of Glutamate NMDA receptor; GRIN1/GRIN2B (Q13224 whole entry, other chains not shown): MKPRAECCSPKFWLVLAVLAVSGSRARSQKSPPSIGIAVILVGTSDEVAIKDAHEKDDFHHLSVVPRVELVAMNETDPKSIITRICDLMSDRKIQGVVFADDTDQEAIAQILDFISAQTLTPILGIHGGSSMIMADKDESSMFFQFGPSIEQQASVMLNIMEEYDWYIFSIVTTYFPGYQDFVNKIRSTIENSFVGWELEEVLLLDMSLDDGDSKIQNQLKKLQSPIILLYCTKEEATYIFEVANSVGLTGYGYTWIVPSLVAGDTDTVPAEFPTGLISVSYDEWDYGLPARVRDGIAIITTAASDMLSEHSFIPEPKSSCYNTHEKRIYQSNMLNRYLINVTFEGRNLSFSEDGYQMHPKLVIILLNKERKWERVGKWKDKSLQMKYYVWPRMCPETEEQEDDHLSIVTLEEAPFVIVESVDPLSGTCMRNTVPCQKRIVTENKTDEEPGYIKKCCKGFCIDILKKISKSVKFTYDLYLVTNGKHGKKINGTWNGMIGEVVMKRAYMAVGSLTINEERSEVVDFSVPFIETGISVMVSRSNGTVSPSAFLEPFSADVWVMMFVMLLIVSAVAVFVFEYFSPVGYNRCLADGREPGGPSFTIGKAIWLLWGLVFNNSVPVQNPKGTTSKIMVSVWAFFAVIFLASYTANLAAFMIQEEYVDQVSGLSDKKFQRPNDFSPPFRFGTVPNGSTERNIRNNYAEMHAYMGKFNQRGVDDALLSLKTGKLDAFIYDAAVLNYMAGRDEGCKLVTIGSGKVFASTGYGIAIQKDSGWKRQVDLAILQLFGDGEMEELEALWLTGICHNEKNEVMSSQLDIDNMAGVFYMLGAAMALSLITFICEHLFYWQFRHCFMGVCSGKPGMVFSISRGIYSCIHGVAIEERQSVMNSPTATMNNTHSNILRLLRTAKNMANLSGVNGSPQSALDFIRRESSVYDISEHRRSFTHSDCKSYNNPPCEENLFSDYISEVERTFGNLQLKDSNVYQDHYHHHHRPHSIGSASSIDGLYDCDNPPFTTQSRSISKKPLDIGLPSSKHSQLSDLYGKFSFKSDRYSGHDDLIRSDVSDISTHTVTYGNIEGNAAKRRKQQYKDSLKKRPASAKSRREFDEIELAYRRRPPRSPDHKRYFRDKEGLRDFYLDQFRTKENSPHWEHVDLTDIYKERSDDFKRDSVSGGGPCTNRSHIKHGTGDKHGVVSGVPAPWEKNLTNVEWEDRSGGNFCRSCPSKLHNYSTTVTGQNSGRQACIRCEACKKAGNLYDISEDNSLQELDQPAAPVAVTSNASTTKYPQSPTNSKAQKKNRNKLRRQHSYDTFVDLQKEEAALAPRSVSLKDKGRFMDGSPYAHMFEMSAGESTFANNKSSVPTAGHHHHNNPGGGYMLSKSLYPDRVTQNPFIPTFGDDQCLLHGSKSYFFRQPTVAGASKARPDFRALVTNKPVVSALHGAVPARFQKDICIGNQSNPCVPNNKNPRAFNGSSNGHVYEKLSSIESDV

Row | SMILES | pIC50 [1] | Activity [2] | pIC50 [3] | pKi [4] | CC50 [5] | inhibition [6]
1 | [Br-].[Br-].c1ccc2c(c1)[nH]c1c[n+](CCCCCC[n+]3ccc4c(c3)[nH]c3ccccc34)ccc12 | 6.73 | 75% | 6.61 | 4.70 | > 100000 nM | 
2 | [Br-].[Br-].c1ccc2c(c1)[nH]c1c[n+](CCOCCOCCOCC[n+]3ccc4c(c3)[nH]c3ccccc34)ccc12 | 6.71 | 98.6% | 5.50 |  | > 100000 nM | 
3 | C[n+]1ccc2c(c1)[nH]c1ccccc12 | 6.27 |  | < 5.00 |  |  | 
4 | NCCCNCCCCNCCCN |  |  |  |  |  | 108%
5 | c1ccc2c(c1)c1ccncc1n2CCCCCCCCCn1c2ccccc2c2ccncc21 |  | 67.7% |  |  | > 100000 nM | 
6 | [Br-].[Br-].c1ccc2c(c1)[nH]c1c[n+](CCCCC[n+]3ccc4c(c3)[nH]c3ccccc34)ccc12 | 7.31 and 7.32 | 92.4% | 6.23 |  | > 100000 nM | 
7 | [Br-].[Br-].c1ccc2c(c1)[nH]c1c[n+](CCCC[n+]3ccc4c(c3)[nH]c3ccccc34)ccc12 | 7.11 | 78.2% | 6.56 |  | > 100000 nM | 
8 | c1ccc2c3c([nH]c2c1)CN(CCCCCCCCCCN1CCc2c([nH]c4ccccc24)C1)CC3 | 5.54 |  | < 6.00 |  |  | 
9 | C[n+]1ccc2c3ccccc3n(CCCCCCCCCn3c4ccccc4c4cc[n+](C)cc43)c2c1.[I-].[I-] |  | 78.9% |  |  | > 100000 nM | 
10 | [Br-].[Br-].c1ccc2c(c1)[nH]c1c[n+](CCCCCCCCCCC[n+]3ccc4c(c3)[nH]c3ccccc34)ccc12 | 7.74 | 60.3% | 7.04 |  | > 100000 nM | 
11 | c1ccc2c(c1)c1ccncc1n2CCCCCCCCCCCCn1c2ccccc2c2ccncc21 | < 5.00 | 100.2% | < 5.00 |  | > 100000 nM | 
12 | [Br-].[Br-].c1ccc2c(c1)[nH]c1c[n+](CC[n+]3ccc4c(c3)[nH]c3ccccc34)ccc12 | 6.50 | 76.6% | 6.37 |  | > 100000 nM | 
13 | CCC[n+]1ccc2c(c1)[nH]c1ccccc12 | 5.64 |  | 6.07 |  |  | 
14 | [Br-].[Br-].c1ccc2c(c1)[nH]c1c[n+](CCCCCCCC[n+]3ccc4c(c3)[nH]c3ccccc34)ccc12 | 7.12 | 51.8% | 6.95 |  | 54200 nM | 
15 | [Br-].[Br-].c1ccc2c(c1)[nH]c1c[n+](CCCCCCCCC[n+]3ccc4c(c3)[nH]c3ccccc34)ccc12 | 7.40 | 73.8% | 6.90 |  | > 100000 nM | 
16 | c1ccc2c(c1)c1ccncc1n2CCCCCn1c2ccccc2c2ccncc21 | < 6.00 |  | < 5.00 |  |  | 
17 | c1cc[n+](CCCCCC[n+]2ccc3c(c2)[nH]c2ccccc23)cc1 | 5.20 |  | 6.25 |  |  | 

Row | SMILES | pIC50 [1] | Activity [2] | pIC50 [3] | pKi [4] | CC50 [5] | inhibition [6]
18 | C[n+]1ccc2c3ccccc3n(CCCCCCCCCCCCn3c4ccccc4c4cc[n+](C)cc43)c2c1.[I-].[I-] | 8.40 | 52.9% | 8.92 |  | 33800 nM | 
19 | [Br-].[Br-].c1ccc2c(c1)[nH]c1c[n+](CCC[n+]3ccc4c(c3)[nH]c3ccccc34)ccc12 | 6.19 | 82.5% | 5.12 |  | > 100000 nM | 
20 | Oc1ccc2[nH]c3c[n+](CCCCC[n+]4ccc5c(c4)[nH]c4ccc(O)cc45)ccc3c2c1.[Br-].[Br-] | 5.79 | 71.8% | 5.37 |  | > 100000 nM | 
21 | CNC1(c2ccccc2Cl)CCCCC1=O (centres undefined) [KETAMINE] | < 5.00 | 99.8% | < 5.00 |  | > 100000 nM | 
22 | c1ccc2c3c([nH]c2c1)CN(CCCCCN1CCc2c([nH]c4ccccc24)C1)CC3 | < 6.00 |  | < 6.00 |  |  | 
23 | COc1ccc2[nH]c3c[n+](CCCCC[n+]4ccc5c(c4)[nH]c4ccc(OC)cc45)ccc3c2c1.[Br-].[Br-] | 6.50 | 84.1% | < 5.00 |  | > 100000 nM | 
24 | [Br-].[Br-].c1ccc2c(c1)[nH]c1c[n+](CCCCCCC[n+]3ccc4c(c3)[nH]c3ccccc34)ccc12 | 7.19 | 80.1% | 7.09 |  | > 100000 nM | 
25 | CCn1c2ccccc2c2ccncc21 | < 5.00 |  | < 6.00 |  |  | 
26 | CC12CC3CC(C)(C1)CC(N)(C3)C2 [MEMANTINE] | < 5.00 | 100.4% | < 5.00 |  | > 100000 nM | 
27 | c1cc[n+](CCCCCC[n+]2ccccc2)cc1 | < 5.00 |  | < 5.00 |  |  | 
28 | [Br-].[Br-].c1ccc2c(c1)[nH]c1c[n+](Cc3ccc(C[n+]4ccc5c(c4)[nH]c4ccccc45)cc3)ccc12 | 6.36 and 6.33 | 83.2% | 6.83 |  | > 100000 nM | 
29 | [Br-].[Br-].c1ccc2c(c1)[nH]c1c[n+](CCCCCCCCCCCC[n+]3ccc4c(c3)[nH]c3ccccc34)ccc12 | 7.66 | 38% | 7.07 |  | 35100 nM | 
30 | CCn1c2ccccc2c2cc[n+](C)cc21 | 5.69 |  | 5.59 |  |  | 
31 | [Br-].[Br-].c1ccc2c(c1)[nH]c1c[n+](CCCCCCCCCC[n+]3ccc4c(c3)[nH]c3ccccc34)ccc12 | 7.31 | 67.5% | 7.20 |  | > 100000 nM | 
32 | C[n+]1ccc2c3ccccc3n(CCCCCn3c4ccccc4c4cc[n+](C)cc43)c2c1 | 7.72 |  | 6.55 |  |  | 
33 | C[C@]12N[C@H](Cc3ccccc31)c1ccccc12 [DIZOCILPINE] |  | 100.3% |  |  | > 100000 nM | 
